Experiments:
γ-secretase [1] = target: T1, γ-secretase (Homo sapiens (Human), UniProt P49768); test: Notch1 processing in ΔE-Notch1 transfected HEK293 cells, NICD Western blot; assay type: cell-based; conditions: 2 μM, 48 hrs
Description: FIG. 5. […] The conditioned media were collected and secreted Aβ40 was measured with 6E10/G2-10 antibodies (mean±SEM; n=3). The activities of the peptide treatments were normalized to the DMSO treatment. […] The same experiments were performed as FIG. 5c. The cell lysates were analyzed by CT-15 antibody. Upper panel: full length APP. Lower panel: CTFs. […] The ΔE-Notch1 (a Notch construct with deletion of the extracellular portion and tagged by Myc) was transfected into HEK293 cells.

γ-secretase [2] = target: T2, γ-secretase (Homo sapiens (Human), UniProt P49768+Q92542); test: In vitro γ-secretase assay, HeLa membrane, APP-derived substrates, ECL detection; assay type: biochemical; conditions: S4 substrate
Description: The recombinant proteins were incubated with γ-secretase (40 μg/ml) in the presence or absence of 1 μM γ-secretase inhibitor L-685,458 (CAS [292632-98-5], shown below). The reaction mixture contains 0.25% 3[(3-cholamidopropyl) dimethylammonio]-2-hydroxypropanesulfonic acid (CHAPSO), 0.1 μg/μl BSA, protease inhibitor, 50 mM PIPES, pH 7.0, 5 mM MgCl2, 5 mM CaCl2 and 150 mM KCl. The reaction was incubated for 2.5 hr at 37° C. and stopped by adding RIPA buffer (150 mM NaCl, 1.0% NP-40, 0.5% sodium
[drawing 1] deoxycholate, 0.1% SDS, 50 mM Tris HCl, pH 8.0). The products were detected with various antibody combinations as previously described (Lai et al., 2003; J. Biol. Chem., 278: 22475-22481; Li et al., 2000, Proc. Natl. Acad. Sci. USA, 97: 6138-6143; Yin et al., 2007, J. Biol. Chem., 282:23639-23644) using electrochemiluminescence (ECL). The amount of product was determined using synthetic peptide or recombinant standards. The Km and Vmax were determined from the Michaelis-Menten equation Michaelis-Menten Kinetics (ν=Vm[S]/([…]; ν: initial rate; Vm: maximum velocity; Km: the Michaelis-Menten constant, S: substrate). P-values were calculated from Student t-test. 7.1.5 Cell-Based Aβ Production Assay and Western Blot

γ-secretase [3] = target: T2, γ-secretase; test: Photoaffinity labeling of γ-secretase in HeLa membrane by Aβ17-23BPA20-biotin; assay type: binding; conditions: inhibitor at 2 μM
Description: FIG. 4. […] Various concentrations of inhibitor were incubated with APP substrate (S4) or Notch peptide substrate containing the C-terminal biotinylated transmembrane domain of Notch1 and HeLa cell membrane in the presence of 0.25% CHAPSO. Aβ40 was detected by G2-10 antibody. The cleaved Notch product was detected by Val1744 antibody that specifically recognizes the cleaved product between Gly1743 and Val1744. Activities are expressed as percentage relative to reading that was produced in DMSO control. […] Various concentrations of S4 substrate were incubated with HeLa membrane in fixed concentrations of inhibitor as indicated. The double reciprocal velocity (1/v) and substrate concentrations (1/S) are plotted to determine the type of inhibition. […] Assays were conducted as described in FIG. 4A. […] The labeled samples were solubilized with RIPA buffer. Biotinylated proteins were captured with streptavidin-agarose and probed by immunoblotting using antibodies against biotin, PS1-CTF, PS1-NTF, Nicastrin, PEN-2 and APH-1a. HeLa cell membrane proteins were directly loaded onto lanes indicated by an arrow in the PEN-2 and APH-1a blots as positive controls. […] Upper panel: PS1-NTF; Lower panel: PS1-CTF.
The labeled proteins were eluted with 2×SDS sample buffer and analyzed with Western blotting using antibodies against the components of γ-secretase complex. Protein concentration was determined with the Dc protein assay kit (Bio-Rad)
After the photolyzed membranes were solubilized, biotinylated proteins were captured, eluted and analyzed by western blotting with antibodies against biotin, PS1, nicastrin, PEN-2 and APH-1.

A20 mouse lymphoma cells = test: Lymphoma cell proliferation assay, [3H]thymidine incorporation; assay type: cell-based; conditions: 48 hours
Description: For a lymphoma cell proliferation assay, A20 mouse lymphoma cells were seeded in a 96-well plate at a concentration of 5×10^5 cells/ml in 100 μl RPMI media containing 2% fetal bovine serum. An additional 100 μl of media containing DMSO or γ-secretase inhibitor was added and incubated for 48 hours at 37° C. After this incubation, the cells were incubated for 5 hours with 2 μCi/ml [^3H]thymidine at 37° C. Proliferative response was then evaluated by harvesting the tritiated DNA from cells using a Skatron cell harvester and proliferation assessed as a function of [^3H]thymidine incorporation measured on a β-counter.

γ-secretase [4] = target: T1, γ-secretase; test: HTRF γ-secretase assay with Sb4 substrate; assay type: biochemical; conditions: 384-well, 2% DMSO; read-out: IC50, HTRF assay
Text: We set out to transfer the assay conditions obtained with the ECL method to an HTRF detection based format (FIG. 10b). The HTRF detection mixture consisted of mouse G2-10 antibody for recognition of the C-terminal epitope of the cleaved product, a Europium-labeled anti-mouse antibody (commonly, an antibody is conjugated with a cryptate ligand that forms a three dimensional coordination cage structure surrounding a lanthanide such as Eu^3+), along with Streptavidin conjugated to a trimeric form of the fluorescent protein allophycocyanin referred to as XL665. Cleavage of Sb4 substrate allows G2-10 mouse antibody to bind to the Aβ40-processed site on the cleaved substrate. The Steptavidin-XL665 conjugate binds directly with the biotin moiety on the N-terminal end of the Sb4 derived product. The anti-mouse Europium antibody targets to the G2-10 antibody, bringing all of these entities into close proximity. The Europium and XL665 reagents are a compatible pair of donor-acceptor fluorophores, and excitation of Europium at 337 nm results in fluorescence energy resonance transfer (FRET) to XL665 which fluoresces at 665 nm (FIG. 10b).
Human γ-secretase was prepared from HeLa cell membranes as described previously (Li et al., 2000). Briefly, HeLa cell pellet was resuspended in 1×MES buffer (50 mM MES, pH 6.0, 150 mM KCl, 5 mM CaCl2, 5 mM MgCl2) and treated with ‘complete’ protease inhibitor (Boehringer Mannheim). The resuspended pellet was mechanically homogenized by passing the cells through the French Press (Spectronic Instruments), and subsequently spun down at 800 g to remove cell debris and nuclei. Next, the supernatants were spun at 100,000 g in order to pellet the membranes. The pelleted membranes were resuspended in 1×MES buffer to approximately 12 mg/ml. This entire procedure was performed at 4° C. HeLa membranes were solubilized using 1% CHAPSO detergent in 1×MES buffer with protease inhibitors. After incubating for 1 hr at 4° C., the membrane was spun down at 100,000 g and the supernatants were collected and stored at −70° C. The collected fraction is defined as solubilized γ-secretase.
HTRF conditions were initially optimized in a 384-well format using a final volume of 20 μl. The high control for this assay was defined as the observed γ-secretase activity in the presence of 1% DMSO (v/v) and the low control as the activity observed when including 100 nM final concentration of Compound E (v/v). First, we determined a tolerable DMSO concentration that would not interfere with γ-secretase activity. Even with 3% DMSO (v/v) present in the assay mixture, there was virtually no effect on the γ-secretase activity (FIG. 11a), which was critical as delivery of library screening compounds required a final concentration of 2% DMSO (v/v) in the γ-secretase reaction. Next, we titrated the HTRF mixture components in an effort to minimize reagent costs for use in high throughput screening. […] Additionally, we varied Europium conjugated anti-mouse antibody and determined that 1 nM of this reagent in the HTRF mixture was sufficient for our assay conditions even though the signal continued to increase with higher concentrations of the anti-mouse antibody (FIG. 11c).
We have further miniaturized the HTRF assay from the established 384-well format to a 1536-well platform enabling more efficient screening of large chemical libraries. […] Based on these optimization experiments, we set our final assay conditions at 0.3 nM G2-10, 1 nM anti-mouse antibody, 15 nM Streptavidin-XL665, and proceeded with the assay at 10 μl final volume (5 μl γ-secretase mix+5 μl HTRF mix) in the 1536-well format for screening.
The pilot assay was performed in duplicate on two separate days to account for any day-to-day variability. […]

production of NICD (γ-secretase [1]): NICD was not detected
type of inhibition (Lineweaver-Burk) (γ-secretase [2]): competitive inhibition
block of photo-crosslinking of PS1-CTF and PS1-NTF by Aβ17-23BPA20-biotin (γ-secretase [3]): completely blocked
IC50 (γ-secretase [4]): 1.4 nM
SMILES: CC(C)C[C@H](NC(=O)[C@H](Cc1ccccc1)C[C@@H](O)[C@H](Cc1ccccc1)NC(=O)OC(C)(C)C)C(=O)N[C@@H](Cc1ccccc1)C(N)=O [L-685,458]
inhibition of cellular proliferation (A20 mouse lymphoma cells): able to inhibit cellular proliferation

Source: patent publication US9023767B2, “γ-Secretase substrates and methods of use” (Memorial Sloan-Kettering Cancer Center, priority 2009, dated 2015)
